10 molecules from patent US20070060558A1 (PALUMED S.A., priority 2004, published 2007) can be followed below.

Data set [1] relates to Staphylococcus aureus MSSA CIP 4.83. Description: Antibacterial activity (MIC/MBC). The data set is classed as cell-based. The settings on record: S. aureus MSSA CIP 4.83.
For data set [2], the system named is S. pneumoniae PRSP CIP 104471. Kind of data set: Antibacterial activity (MIC/MBC). The data set is classed as cell-based, Streptococcus pneumoniae.
In data set [3] the test system is S. pneumoniae PRSP clinical isolate. Kind of data set: Antibacterial activity (MIC/MBC). The data set is classed as cell-based, Streptococcus pneumoniae.
The test system of data set [4] is E. faecalis VRE CIP 104676. Description: Antibacterial activity (MIC/MBC). The data set is classed as cell-based, Enterococcus faecalis. The settings on record: E. faecalis VRE CIP 104676.
Data set [5] concerns H. influenzae CIP 102514. Description: Antibacterial activity (MIC/MBC). The data set is classed as cell-based, Haemophilus influenzae.
Data set [6] is described as follows: Stability in solution at pH 7 (HPLC purity over time). The data set is classed as physicochemical. The settings on record: pH 7, 37° C. Here is the method:
The stability of the aminoquinoline-cephalosporin_hybrid molecules given as examples was determined in solution at 37° C., at physiological pH (pH 7, phosphate buffer/acetonitrile, 75/25 v/v) and at acidic pH (pH 1, 0.1 M HCl/ethanol, 70/30 v/v) by high pressure liquid chromatography coupled to a UV-visible detector (Beckman Coulter ODS C18 column, 5 μm, 4.6×250 mm; eluents: A: 0.1% TFA, B: CH3CN/H2O 90/10 0.1% TFA, gradient: from 10% to 100% of B in 30 minutes, and then 100% of B for 10 minutes, flow rate 1 mL/minutes, λ=254 nm, volume injected: 10 μL).

In data set [7] the test system is Human lung fibroblast cells (ATCC CCL-171). Description: Cytotoxicity (MTT) assay. The settings on record: for % of survival cells compared to the untreated controls: 18 hr treatment. Here is the method:
Cellular toxicity was measured by a colorimetric assay that makes use of the tetrazolium salt, MTT. Human lung fibroblast cells (ATCC CCL-171) were plated in 96-well plates at 10^4 cells per well and incubated under 5% CO2 at 37° C. for 24 hr to allow adherence of cells to the plate. Test compounds were prepared as a stock solution at 1 mg/mL in 1% DMSO/water and diluted with water for the serial dilutions (500-7.8 μg/mL). Cells underwent a 18 hr treatment under 5% CO2 at 37° C. with experimental drugs. Corresponding controls received either no drug treatment or treatment with SDS (sodium dodecyl sulfate). The optical density of each sample was read on a microplate spectrophotometer reader at 600 nm and cell survival was expressed as a fraction of that of untreated controls. A drug is said cytotoxic when this fraction is ≦−30%

The mark [8] stands for this setting: Staphylococcus aureus, read-out: MBC.
The mark [9] stands for this setting: Staphylococcus aureus, read-out: MIC.
Setting [10] is: Streptococcus pneumoniae, read-out: MIC.
Where [11] appears, read: Streptococcus pneumoniae, PRSP, read-out: MIC.
Setting [12] is: Enterococcus faecalis, read-out: MIC.
[13] abbreviates: Haemophilus influenzae, CIP102514.
Where [14] appears, read: Haemophilus influenzae, CIP102514, H. influenzae CIP 102514, read-out: MIC.

Values after ≈ are worked out from the molar mass of the structure shown. Where two headings read alike, the source gives them in different places.

Regarding `CC(=O)OCC1=C(C(=O)O)N2C(=O)[C@@H](NC(=O)CCCNc3ccnc4cc(Cl)ccc34)[C@H]2SC1` [PA 1053, (6R,7R-3-Acetoxymethyl-7-[4-7-chloroquinolin-4-ylamino)-butyrylamino]-8-oxo-5-thia-1-aza-bicyclo[4.2.0]oct-2-ene-2-carboxylic acid], the MBC in data set [1] (setting [8]) was over 50 µg/mL; in data set [2] (Streptococcus pneumoniae) it was 3.12 µg/mL (≈ 6.01 µM); in data set [3] (Streptococcus pneumoniae), 6.25 µg/mL (≈ 12 µM); in data set [4] (Enterococcus faecalis), over 50 µg/mL; in data set [5] (setting [13]), 25 µg/mL (≈ 48.2 µM). For the same molecule, the MIC in data set [1] (setting [9]) is 0.78 µg/mL (≈ 1.5 µM); in data set [2] (setting [10]) it was 1.56 µg/mL (≈ 3.01 µM); in data set [3] (setting [11]), 3.12 µg/mL (≈ 6.01 µM); in data set [4] (setting [12]), 25 µg/mL (≈ 48.2 µM); in data set [5] (setting [13]), 6.25 µg/mL (≈ 12 µM).

As for `CC(=O)OCC1=C(C(=O)O)N2C(=O)[C@@H](NC(=O)C3CCN(c4ccnc5cc(Cl)ccc45)CC3)[C@H]2SC1.Cl` [PA 1074], the “Purity of the hybrid molecules (as a percentage) as a function of time (hours)” value in data set [6] (time 0 h) is 100%; in data set [6] (time 1 h) it was 100%; in data set [6] (time 2 h), 100%; in data set [6] (time 4 h), 100%; in data set [6] (time 6 h) it was 100%; in data set [6] (time 8 h), 97%. Besides, the “Purity of the hybrid molecules (as a percentage) as a function of time (hours)” value in data set [6] (time 15 h) amounted to 88%; in data set [6] (time 24 h), 87%. In addition, the MBC in data set [1] (setting [8]) was 1.56 µg/mL; in data set [2] (Streptococcus pneumoniae), 50 µg/mL; in data set [3] (Streptococcus pneumoniae), 50 µg/mL; in data set [4] (Enterococcus faecalis), over 50 µg/mL; in data set [5] (Haemophilus influenzae, CIP102514, H. influenzae CIP 102514, read-out: MBC), over 50 µg/mL. The MIC in data set [1] (setting [9]) came to 0.78 µg/mL; in data set [2] (setting [10]), 25 µg/mL; in data set [3] (setting [11]), 25 µg/mL; in data set [4] (setting [12]), 50 µg/mL; in data set [5] (setting [14]), 50 µg/mL.

In the case of `CC(=O)OCC1=C(C(=O)O)N2C(=O)[C@@H](NC(=O)CNc3ccnc4cc(Cl)ccc34)[C@H]2[S+]([O-])C1` (stereo partly drawn) [PA 1092, (6R,7R-3-Acetoxymethyl-7-[2-7-chloroquinolin-4-ylamino)acetylamino]-5,8-dioxo-5λ^1-thia-1-aza-bicyclo[4.2.0]oct-2-ene-2-carboxylic acid], the MBC in data set [1] (setting [8]) was over 50 µg/mL; in data set [2] (Streptococcus pneumoniae), 3.12 µg/mL (≈ 6.15 µM); in data set [3] (Streptococcus pneumoniae), 12.5 µg/mL (≈ 24.7 µM); in data set [4] (Enterococcus faecalis), over 50 µg/mL; in data set [5] (setting [13]), 50 µg/mL (≈ 98.6 µM). The MIC in data set [1] (setting [9]) is 12.5 µg/mL (≈ 24.7 µM); in data set [2] (setting [10]), 1.56 µg/mL (≈ 3.08 µM); in data set [3] (setting [11]), 6.25 µg/mL (≈ 12.3 µM); in data set [4] (setting [12]), over 50 µg/mL; in data set [5] (setting [13]), 12.5 µg/mL (≈ 24.7 µM).

Take `CCCCCCCCCCCCOS(=O)(=O)[O-].[Na+]` [SDS, sodium dodecyl sulfate, reference compound]: the “% of survival cells compared to the untreated controls” value is reported as “+2.1%” in data set [7] (7.8 μg/mL); −7.0% in data set [7] (15.6 μg/mL); −16.4% in data set [7] (31.2 μg/mL); −77.9% in data set [7] (62.5 μg/mL); −81.2% in data set [7] (125 μg/mL); −81.1% in data set [7] (250 μg/mL). Besides, the “% of survival cells compared to the untreated controls” value in data set [7] (500 μg/mL) is recorded as −83.0%. Besides, the “concentration at which the threshold of cytotoxicity (−30%) is exceeded” value in data set [7] (human, 18 hr) is at least 31200 ng/mL. For the same molecule, the “human lung fibroblast cells killed” value in data set [7] (human, 18 hr) is listed as “more than 80%”.

On to `CC(=O)OCC1=C(C(=O)O)N2C(=O)[C@@H](NC(=O)CCNc3ccnc4cc(Cl)ccc34)[C@H]2SC1` [PA 1037], for which the MBC is over 50 µg/mL in data set [1] (setting [8]); 3.12 µg/mL (≈ 6.18 µM) in data set [2] (Streptococcus pneumoniae); 6.25 µg/mL (≈ 12.4 µM) in data set [3] (Streptococcus pneumoniae); 25 µg/mL (≈ 49.5 µM) in data set [4] (Enterococcus faecalis); 25 µg/mL (≈ 49.5 µM) in data set [5] (setting [13]). Besides, the MIC in data set [1] (setting [9]) came to 0.39 µg/mL (≈ 0.772 µM); in data set [2] (setting [10]), 1.56 µg/mL (≈ 3.09 µM); in data set [3] (setting [11]), 3.12 µg/mL (≈ 6.18 µM); in data set [4] (setting [12]) it was 6.25 µg/mL (≈ 12.4 µM); in data set [5] (setting [13]), 6.25 µg/mL (≈ 12.4 µM).

For `CC(=O)OCC1=C(C(=O)O)N2C(=O)[C@@H](NC(=O)CNc3ccnc4cc(Cl)ccc34)[C@H]2[S+]([O-])C1.Cl` (stereo partly drawn) [PA 1088, (6R,7R-3-Acetoxymethyl-7-[2-7-chloroquinolin-4-ylamino)acetylamino]-5,8-dioxo-5λ^4-thia-1-aza-bicyclo[4.2.0]oct-2-ene-2-carboxylic acid hydrochloride], the “Purity of the hybrid molecules (as a percentage) as a function of time (hours)” value is listed as 100% in data set [6] (time 0 h); 100% in data set [6] (time 1 h); 100% in data set [6] (time 2 h); 100% in data set [6] (time 4 h); 81% in data set [6] (time 24 h).

In the case of `CC(C)(C)C(=O)OCOC(=O)[C@@H]1N2C(=O)[C@@H](NC(=O)C3CCN(c4ccnc5cc(Cl)ccc45)CC3)[C@H]2SC1(C)C` [PA 1007, (2S,5R,6R)-6-{[1-(7-Chloroquinolin-4-yl)-piperidine-4-carbonyl]-amino}-3,3-dimethyl-7-oxo-4-thia-1-aza-bicyclo[3.2.0]heptane-2-carboxylic acid 2,2-dimethyl-propionyloxymethyl ester], the MBC in data set [1] (setting [8]) amounted to 0.49 µg/mL (≈ 0.812 µM). For the same molecule, the MIC in data set [1] (setting [9]) turned out to be 0.012 µg/mL (≈ 0.0199 µM).

As to `CC(=O)OCC1=C(C(=O)O)N2C(=O)[C@@H](N)[C@H]2SC1` [7-ACA, 7-aminocephalosporanic acid, reference compound], the MIC in data set [1] is 50 µg/mL (≈ 184 µM); in data set [2] it was 50 µg/mL (≈ 184 µM); in data set [3], 50 µg/mL (≈ 184 µM); in data set [4], over 50 µg/mL; in data set [5] (H. influenzae CIP 102514), 50 µg/mL (≈ 184 µM).

Take `CC1(C)S[C@@H]2[C@H](NC(=O)Cc3ccccc3)C(=O)N2[C@H]1C(=O)O` [Penicillin G, reference compound]: in data set [1], the MBC was found to be 0.06 µg/mL (≈ 0.179 µM) and the MIC amounted to 0.008 µg/mL (≈ 0.0239 µM).

As for `O=C(O)CNc1ccnc2cc(Cl)ccc12` [PA 1117, (7-Chloroquinolin-4-ylamino)acetic acid, reference compound], the MIC in data set [1] (setting [9]) is over 50 µg/mL; in data set [2] (setting [10]), 50 µg/mL (≈ 211 µM); in data set [3] (setting [11]) it was 50 µg/mL (≈ 211 µM); in data set [4] (setting [12]), over 50 µg/mL; in data set [5] (setting [14]) it was 50 µg/mL (≈ 211 µM).
